Assay results: article PMC5048095, “Agroindustrial Wastes as Alternative for Lipase Production by Candida viswanathii under Solid-State Cultivation: Purification, Biochemical Properties, and Its Potential for Poultry Fat Hydrolysis” (Enzyme Research, 2016)

Test system: T1, purified C. viswanathii lipase
T1 construct: native extracellular lipase from solid-state culture, Octyl Sepharose purified
Experiment: p-nitrophenol release at […] nm, Lineweaver-Burk plot
Assay type: biochemical, Candida viswanathii
Settings: 0.0 to 1.0 mM p-NPP; pH and temperature of the kinetic assay not given; free enzyme

In the case of `CCCCCCCCCCCCCCCC(=O)Oc1ccc([N+](=O)[O-])cc1` [p-NPP, p-nitrophenyl palmitate], the Km is reported as 120 µM.
